Experimental data as given in BindingDB's records for doi:10.1016/S0960-894X(00)80655-1 (1992).

molecular target: Polyunsaturated fatty acid 5-lipoxygenase (Cavia porcellus); test: Inhibition of [14C]arachidonic acid conversion to 5-HETE by broken cell 5-LO isolated from guinea pig PMN

IC50 [nM] | Compound
310 | O=c1c2c([nH]n1CCOc1ccc3ccccc3c1)CCCC2 [2-[2-(Naphthalen-2-yloxy)-ethyl]-2,3a,4,5,6,7-hexahydro-indazol-3-one]
480 | O=c1c2c([nH]n1CCOc1ccc3ccccc3c1)CCC2 [2-[2-(Naphthalen-2-yloxy)-ethyl]-3a,4,5,6-tetrahydro-2H-cyclopentapyrazol-3-one]
57 | Cc1cc(=O)n(CCOc2ccc3c(c2)Nc2ccccc2S3)[nH]1 [5-Methyl-2-[2-(10H-phenothiazin-2-yloxy)-ethyl]-2,4-dihydro-pyrazol-3-one]
